Data as given in patent US20060089824A1, “Methods and systems for drug screening and computational modeling” (priority 2002, published 2006).

Molecular target: D1 receptor (Homo sapiens, UniProt P21728)
Assay: Calculated fraction of D1 receptors occupied from Ki and free drug concentration
Settings: at a therapeutic olanzapine level
Text: In particular, affinities of many drugs for receptors are well known. For example, Goodman and Gilmans “The Pharmacological Basis of Therapeutics,” Tenth Edition. […] [formula]

Sequence of D1 receptor (P21728 whole entry): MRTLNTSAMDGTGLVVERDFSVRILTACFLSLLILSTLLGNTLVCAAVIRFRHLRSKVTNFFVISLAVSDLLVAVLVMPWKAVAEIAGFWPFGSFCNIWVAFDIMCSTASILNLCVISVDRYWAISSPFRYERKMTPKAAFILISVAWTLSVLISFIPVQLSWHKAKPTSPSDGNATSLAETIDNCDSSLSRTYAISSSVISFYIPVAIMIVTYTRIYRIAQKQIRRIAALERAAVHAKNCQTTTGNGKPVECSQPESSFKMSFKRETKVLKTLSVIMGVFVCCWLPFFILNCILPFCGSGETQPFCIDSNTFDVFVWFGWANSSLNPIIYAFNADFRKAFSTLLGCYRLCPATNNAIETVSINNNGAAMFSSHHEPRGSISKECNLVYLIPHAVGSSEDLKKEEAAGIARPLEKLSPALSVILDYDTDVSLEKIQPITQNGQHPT

Cc1cc2c(s1)Nc1ccccc1N=C2N1CCN(C)CC1 [olanzapine] was tested, and the “D1 receptors blocked (antagonized)” value was “approximately 47%”.
